# Experimental data: ChEMBL document CHEMBL1141087, “Differential response of estrogen receptor subtypes to 1,3-diarylindene and 2,3-diarylindene ligands” (J Med Chem, 2005)
# pEC50, pKi: −log10 of the molar value.
# What was measured:
# Estrogen receptor beta [1] = target: T1, Estrogen receptor beta (Homo sapiens, UniProt Q92731)
# Estrogen receptor [2] = target: T2, Estrogen receptor (Homo sapiens, UniProt P03372)
# T2 sequence (P03372 whole entry): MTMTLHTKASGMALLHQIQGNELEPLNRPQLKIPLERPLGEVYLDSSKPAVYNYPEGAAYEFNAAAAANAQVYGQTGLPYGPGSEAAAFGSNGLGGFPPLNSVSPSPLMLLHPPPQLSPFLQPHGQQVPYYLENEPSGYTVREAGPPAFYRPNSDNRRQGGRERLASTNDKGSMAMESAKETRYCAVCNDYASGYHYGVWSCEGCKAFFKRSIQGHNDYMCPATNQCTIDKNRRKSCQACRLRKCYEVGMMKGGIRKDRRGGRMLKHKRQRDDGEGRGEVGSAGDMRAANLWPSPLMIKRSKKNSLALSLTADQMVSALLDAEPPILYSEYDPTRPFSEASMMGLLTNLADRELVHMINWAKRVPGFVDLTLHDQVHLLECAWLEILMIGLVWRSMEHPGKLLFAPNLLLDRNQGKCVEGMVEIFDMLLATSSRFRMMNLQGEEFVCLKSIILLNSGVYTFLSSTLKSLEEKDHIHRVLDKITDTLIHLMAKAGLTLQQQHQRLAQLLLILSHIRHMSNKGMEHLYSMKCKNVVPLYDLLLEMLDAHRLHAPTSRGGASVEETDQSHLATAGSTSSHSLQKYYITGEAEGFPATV
# Estrogen receptor [3] = target: T2, Estrogen receptor; remark: listed apart in the source
# Description: Transcriptional activation of estrogen receptor alpha in U2OS cell using estrogen-regulated luciferase reporter gene plasmid upon incubation for 20-30 mins at RT
# Estrogen receptor beta [4] = target: T1, Estrogen receptor beta; remark: listed apart in the source
# Description: Transcriptional activation of estrogen receptor beta in U2OS cell using estrogen-regulated luciferase reporter gene plasmid upon incubation for 20-30 mins at RT
# T1 sequence (Q92731 whole entry): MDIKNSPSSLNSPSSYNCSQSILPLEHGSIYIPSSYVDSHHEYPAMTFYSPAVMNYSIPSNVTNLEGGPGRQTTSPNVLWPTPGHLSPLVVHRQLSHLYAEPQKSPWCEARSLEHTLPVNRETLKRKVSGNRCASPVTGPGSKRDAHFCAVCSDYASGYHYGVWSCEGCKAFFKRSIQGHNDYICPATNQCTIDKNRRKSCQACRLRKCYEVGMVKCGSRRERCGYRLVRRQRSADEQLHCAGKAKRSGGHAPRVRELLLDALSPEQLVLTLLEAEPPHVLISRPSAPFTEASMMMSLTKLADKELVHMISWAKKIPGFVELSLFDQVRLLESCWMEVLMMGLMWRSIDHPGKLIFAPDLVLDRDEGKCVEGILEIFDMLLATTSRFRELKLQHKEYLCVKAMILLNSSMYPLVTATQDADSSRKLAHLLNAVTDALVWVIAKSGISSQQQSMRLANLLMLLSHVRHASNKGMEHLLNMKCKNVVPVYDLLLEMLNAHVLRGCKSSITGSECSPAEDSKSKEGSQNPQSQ
SMILES,pKi (Estrogen receptor beta [1]),pKi (Estrogen receptor [2]),pEC50 (Estrogen receptor [3]),pEC50 (Estrogen receptor beta [4])
CCC1=C(c2ccc(O)cc2)C(C(=O)Nc2ccc(O)cc2)c2cc(O)ccc21 (stereo not drawn),,,6.37,
NC(=O)c1ccc(C2=C(c3ccc(O)cc3)Cc3cc(O)ccc32)cc1,9.34,8.38,,
Oc1ccc(C2=C(Cc3ccccc3)c3ccc(O)cc3C2)cc1,,,7.85,7.43
CCC1=C(c2ccc(O)cc2)C(CC)c2cc(O)ccc21 (stereo not drawn),,,10.23,9.52
CCC1=C(c2ccc(O)cc2)C(C(=O)O)c2cc(O)ccc21 (stereo not drawn),,,6.80,7.28
CCC1=C(c2ccc(O)cc2)C(C(=O)Nc2ccc(OCCN(C)C)cc2)c2cc(O)ccc21 (stereo not drawn),,,6.82,6.29
Oc1ccc(C2=C(c3ccc(OCCN4CCCCC4)cc3)c3ccc(O)cc3C2)cc1,9.72,8.77,,
CCC1=C(c2ccc(O)cc2)C(C(=O)Nc2ccc(OCCN3CCCCC3)cc2)c2cc(O)ccc21 (stereo not drawn),6.83,6.74,7.00,
Oc1ccc(C2=C(c3ccccc3)c3ccc(O)cc3C2)cc1,,,8.37,7.27
CCC1=C(c2ccc(O)cc2)Cc2cc(O)ccc21,,,9.51,9.52

# Further lines, results first:
pKi (Estrogen receptor beta [1]),pKi (Estrogen receptor [2]),pEC50 (Estrogen receptor [3]),pEC50 (Estrogen receptor beta [4]),SMILES
9.04,8.68,7.82,,Oc1ccc(C2=C(c3ccc(C(F)(F)F)cc3)c3ccc(O)cc3C2)cc1
8.89,,7.77,,Cc1ccc(C2=C(c3ccc(O)cc3)Cc3cc(O)ccc32)cc1
8.89,8.07,8.15,,Oc1ccc(C2=C(c3ccc(O)cc3)c3ccc(O)cc3C2)cc1
9.31,7.62,7.77,,Oc1ccc(C2=C(c3ccc(Cl)cc3)c3ccc(O)cc3C2)cc1
8.42,8.14,,,CC(=O)c1ccc(C2=C(c3ccc(O)cc3)Cc3cc(O)ccc32)cc1
8.55,,8.41,8.00,Oc1ccc(C2=C(c3ccc(F)cc3)c3ccc(O)cc3C2)cc1
6.38,,,,O=C(O)c1ccc(C2=C(c3ccc(O)cc3)Cc3cc(O)ccc32)cc1
7.82,7.23,6.96,,Oc1ccc(C2=C(c3ccc(CBr)cc3)c3ccc(O)cc3C2)cc1
8.66,9.17,8.17,,Nc1ccc(C2=C(c3ccc(O)cc3)Cc3cc(O)ccc32)cc1
